Laboratory results from paper PMC8945811 (2022).

Assays:
[1] = system: ATT 26mer triplex (DNA, triplex) AAAAAAAAAAAAAAAAAAAAAAAAAA/TTTTTTTTTTTTTTTTTTTTTTTTTT/TTTTTTTTTTTTTTTTTTTTTTTTTT; experiment: fluorescence titration, Scatchard; settings: Na-cacodylate, I = 0.05 M; pH 7.0, 1 mM EDTA, 25 °C; per phosphate; per base
[2] = system: poly rA-poly rU (RNA, polymer) A/U; experiment: UV melting of four-polynucleotide mixture, 260 nm; settings: Na-cacodylate with NaCl, I = 0.1 M; pH 7.0, 1 mM EDTA; 2 μM compound, 20 μM (bp) each polynucleotide, r = 0.025; error ±0.5; per base
[3] = system: ATT triplex (poly dA-2poly dT) (DNA, polymer) A/T/T; experiment: fluorescence titration, Scatchard; settings: Na-cacodylate, I = 0.05 M; pH 7.0, 1 mM EDTA, 25 °C; per phosphate; per base
[4] = system: ATT triplex (poly dA-2poly dT) (DNA, polymer) A/T/T; experiment: UV melting, 260 nm; settings: Na-cacodylate with NaCl, I = 0.1 M, pH 7.0, 1 mM EDTA, r = 0.1, error ±0.5, per base
[5] = system: poly dA-poly dT (DNA, polymer) A/T; experiment: UV melting of four-polynucleotide mixture, 260 nm; settings: Na-cacodylate with NaCl, I = 0.1 M; pH 7.0, 1 mM EDTA; 2 μM compound, 20 μM (bp) each polynucleotide, r = 0.025; error ±0.5; per base
[6] = system: poly rA (RNA, polymer) A; experiment: competition dialysis; settings: Na-cacodylate, I = 0.05 M; pH 7, 1 mM EDTA, 25 °C, 24 h; 5 μM compound; bound amount only in figure
[7] = system: poly dA-poly rU (DNA:RNA, polymer) A/U; experiment: UV melting of four-polynucleotide mixture, 260 nm; settings: Na-cacodylate with NaCl, I = 0.1 M; pH 7.0, 1 mM EDTA; 2 μM compound, 20 μM (bp) each polynucleotide, r = 0.025; error ±0.5; per base
[8] = system: poly dA-poly rU (DNA:RNA, polymer) A/U; experiment: fluorescence titration, Scatchard; settings: Na-cacodylate; pH 7.0, 1 mM EDTA, 25 °C; per phosphate; table footnote says I = 0.05 M; per base
[9] = system: poly rA-poly rU (RNA, polymer) A/U; experiment: CD titration; settings: Na-cacodylate, I = 0.05 M, 30 μM polynucleotide
[10] = system: poly dA-poly dT (DNA, polymer) A/T; experiment: CD titration; settings: Na-cacodylate, I = 0.05 M; pH 7.0, 1 mM EDTA; 30 μM polynucleotide, r = 0.3; bisignate ICD, minor-groove dimers
[11] = system: poly rA-poly dT (DNA:RNA, polymer) A/T; experiment: UV melting of four-polynucleotide mixture, 260 nm; settings: Na-cacodylate with NaCl, I = 0.1 M; pH 7.0, 1 mM EDTA; 2 μM compound, 20 μM (bp) each polynucleotide, r = 0.025; error ±0.5; per base
[12] = system: poly dT (DNA, polymer) T; experiment: competition dialysis; settings: Na-cacodylate, I = 0.05 M; pH 7, 1 mM EDTA, 25 °C, 24 h; 5 μM compound; bound amount only in figure
[13] = system: ATT triplex (poly dA-2poly dT) (DNA, polymer) A/T/T; experiment: ITC; settings: Na-cacodylate, I = 0.05 M; pH 7.0, 1 mM EDTA, 25 °C; site with n 0.1 of two-site fit (other site 6.5, n 0.7); per base
[14] = system: poly rA-poly dT (DNA:RNA, polymer) A/T; experiment: ITC; settings: Na-cacodylate, I = 0.05 M; pH 7.0, 1 mM EDTA, 25 °C; one-site fit; per base
[15] = third-strand transition (duplex transition 0)

Row | SMILES | log Ks [1] | ΔTm [2] | log Ks [3] | ΔTm [4, 15] | ΔTm [5] | binding [6] | ΔTm [7] | log Ks [8] | binding ([9]; pH 7.0, 1 mM EDTA, r = 0.3, negative ICD, intercalation) | binding [10] | ΔTm [11] | ΔTm ([4]; third-strand transition (duplex transition 21.9)) | binding [12] | log Ks [13] | log Ks [14] | binding ([9]; pH 7.0, bisignate ICD, major-groove dimers)
1 | Clc1c(-c2nc3ccc(C4=NCCN4)cc3s2)sc2ccccc12 | 7.4 | 0 °C | 7.6 | 43.7 °C | 0 °C | yes | 5.5 °C | 8.0 | yes | yes |  |  |  |  |  | 
2 | c1cc2nc(-c3cncc(-c4nc5ccc(C6=NCCN6)cc5s4)c3)sc2cc1C1=NCCN1 |  | 2.2 °C |  |  | 19.1 °C | yes | 5.6 °C |  |  |  | 1.7 °C | 31.7 °C | yes | 8.7 | 7.8 | 
3 | c1csc(-c2ccc(-c3nc4ccc(C5=NCCN5)cc4s3)s2)c1 |  |  |  | 27.3 °C | 2.1 °C |  |  |  |  |  | 1.7 °C |  |  |  |  | yes
